Read-outs that look alike come from different tables or passages of the source.

Data set [1] relates to endosomal escape of effector molecule. The data set is described as follows: Endosomal escape enhancing activity of saponins (cell-based assays, in vivo models). Particulars: in vivo animal tumor models, LDL lowering therapy models, free or cleavably conjugated saponin.
Data set [2] in a line: Critical micellar concentration (CMC) of saponins, ANS fluorimetric method. The class given is physicochemical. Conditions: for CMC: QS saponins derived from Quillaja saponaria. On the procedure:
The critical micellar concentration (CMC) of saponin SO1861 derived from Saponaria officinalis (SO) and QS saponins derived from Quillaja saponaria (QS) (Table A5) was determined by the method of DeVendittis et al. (A fluorimetric method for the estimation of the critical micelle concentration of surfactants, Analytical Biochemistry, Volume 115, Issue 2, August 1981, Pages 278-286) as follows:
The emission spectrum of 8-Anilinonaphthalene-1-sulfonic acid (ANS) in either purified water (MQ) or PBS (Dulbecco's PBS+/+) was determined at dry weight concentrations of saponins ranging from […] to cover the range below and above the CMC. Above the CMC, the fluorescence yield of ANS increases and the wavelength of maximum emission decreases due to portioning of the fluorescent dye into micelles. Fluorescence yields were recorded on a Fluoroskan Ascent FL (Thermo Scientific) at an excitation wavelength of 355 nm, and an emission wavelength of 460 nm. 6 μg at a concentration of 75.86 μM of ANS were used per sample and measurement.

In a further data set the target is EGFR (human) (UniProt P00533). The experiment in a line: cell-based or functional assay.
Data set [3] has as its system SK-BR-3 cells (HER2++/EGFR+/CD71+). The experiment in a line: Cell killing (MTS) assay on SK-BR-3 cells. The data set is classed as cell-based, human. On the procedure: (§1) After treatment the cells were incubated for 72 hr at 37° C. before the cell viability was determined by a MTS-assay, performed according to the manufacturer's instruction (CellTiter 96@AQueous One Solution Cell Proliferation Assay, Promega). Briefly, the MTS solution was diluted 20× in DMEM without phenol red (PAN-Biotech GmbH) supplemented with 10% FBS. The cells were washed once with 200 μL/PBS well, after which 100 μL diluted MTS solution was added/well. The plate was incubated for approximately 20-30 minutes at 37° C. Subsequently, the OD at 492 nm was measured on a Thermo Scientific Multiskan FC plate reader (Thermo Scientific). For quantification the background signal of ‘medium only’ wells was subtracted from all other wells, before the cell viability percentage of treated/untreated cells was calculated, by dividing the background corrected signal of treated wells over the background corrected signal of the untreated wells (×100).

In data set [4] the test system is A2058 cells (EGFR-/HER2+/-/CD71+). The data set is described as follows: Cell viability / cell killing (MTS) assay on A2058 cells. The class given is cell-based, human. On the procedure: (§2) Cells were seeded in a 96 well plate at 5.000-10.000 c/w in 100 μL/well and incubated overnight at 37° C. The next day 10× concentrated treatment-mix samples were prepared in PBS, which contain antibody-conjugated SO1861 (i.e. a ‘binding molecule’ or an ‘endosomal escape enhancing conjugate’ of the invention) and targeted-toxin (i.e. a ‘binding molecule’) both at 10× final concentration. The media was removed from the cell culture plate and replaced by 180 μL culture media, followed by the addition of 20 μL treatment-mix/well. For control, 10× treatment-mix samples were prepared that contained the corresponding concentrations of only antibody-conjugated SO1861, only antibody, only SO1861, only targeted-toxin, or PBS without compound as vehicle control. After treatment the cells were incubated for 72 hr at 37° C. before the cell viability was determined by a MTS-assay, performed according to the manufacturer's instruction (CellTiter 96® AQueous One Solution Cell Proliferation Assay, Promega). Briefly, the MTS solution was diluted 20× in DMEM without phenol red (PAN-Biotech GmbH) supplemented with 10% FBS (PAN-Biotech GmbH). The cells were washed once with 200 μL PBS per well, after which 100 μL diluted MTS solution was added per well. The plate was incubated for approximately 20-30 minutes at 37° C. Subsequently, the optical density at 492 nm was measured on a Thermo Scientific Multiskan FC plate reader (Thermo Scientific). For quantification the background signal of ‘medium only’ wells was subtracted from all other wells, before the ratio of untreated/treated cells was calculated, by dividing the background corrected signal of untreated wells over the background corrected signal of the treated wells.
as §1

Data set [5] relates to A431 cells (EGFR++/HER2+/-/CD71+). The experiment in a line: Cell viability / cell killing (MTS) assay on A431 cells. The data set is classed as cell-based, human. On the procedure: as §2, §1
For data set [6], the system named is MDA-MB-468 cells (HER2-/EGFR++/CD71+). The experiment in a line: Cell killing (MTS) assay on MDA-MB-468 cells. The class given is cell-based, human. On the procedure:
as §1

Data set [7] in a line: Release kinetic assay of saponin from linker at various pH. The class given is physicochemical. Particulars: pH 4.0, 37° C. On the procedure: SO1861-SC-Mal (blocked) (saponin covalently coupled to the linker through an acid-labile semicarbazone (sc) bond) was tested for efficient pH sensitive release with a release kinetic assay and compared with release kinetics for SO1861-EMCH (blocked) (saponin covalently coupled to the linker through an acid-labile hydrazone bond). The assay was performed in buffers with pH 7.4, pH 6.0 pH, pH 5.0, pH 4.0 at 37° C. for 24 hours.

Regarding SO1772, the “endosomal escape enhancing activity” value in data set [1] is “activity was confirmed”.

For `CC(=O)O[C@@H]1[C@H](O[C@@H]2O[C@@H](C)[C@H](O)[C@@H](O)[C@H]2O)[C@@H](O[C@@H]2O[C@@H](C)[C@H](O[C@@H]3OC[C@@H](O)[C@H](O[C@@H]4OC[C@](O)(CO)[C@H]4O)[C@H]3O)[C@@H](O[C@@H]3O[C@H](CO)[C@@H](O)[C@H](O)[C@H]3O)[C@H]2O)[C@H](OC(=O)[C@]23CCC(C)(C)C[C@H]2C2=CC[C@@H]4[C@@]5(C)CC[C@H](O[C@@H]6O[C@H](C(=O)O)[C@@H](O)[C@H](O[C@@H]7OC[C@@H](O)[C@H](O)[C@H]7O)[C@H]6O[C@@H]6O[C@H](CO)[C@H](O)[C@H](O)[C@H]6O)[C@@](C)(C=O)[C@@H]5CC[C@@]4(C)[C@]2(C)C[C@H]3O)O[C@@H]1C` [QS7, QS-7], the “CMC” value in data set [2] amounted to 230 ± 25 µM.

Take GE1741: the “endosomal escape enhancing activity” value in data set [1] is “activity was confirmed”.

Consider QS-21 [QS21], for which the “CMC” value in data set [2] came to 75 ± 8 µM. In addition, the “endosomal escape enhancing activity” value in data set [1] was “activity was confirmed”.

Take `C[C@@H]1O[C@@H](O[C@H]2[C@H](OC(=O)[C@]34CCC(C)(C)C[C@H]3C3=CC[C@@H]5[C@@]6(C)CC[C@H](O[C@H]7O[C@H](C(=O)O)[C@@H](O)[C@H](O[C@@H]8OC[C@@H](O)[C@H](O)[C@H]8O)[C@H]7O[C@@H]7O[C@H](CO)[C@H](O)[C@H](O)[C@H]7O)[C@@](C)(C=O)[C@@H]6CC[C@@]5(C)[C@]3(C)CC4)O[C@H](C)[C@H](O[C@@H]3O[C@H](C)[C@@H](O)[C@H](O)[C@H]3O)[C@@H]2O)[C@H](O)[C@H](O)[C@H]1O[C@@H]1OC[C@@H](O)[C@H](O[C@@H]2OC[C@@H](O)[C@H](O)[C@H]2O)[C@H]1O` [SA1641]: in data set [1], the “endosomal escape enhancing activity” value is given as “activity was confirmed”.

As to SO1730, in data set [1], the “endosomal escape enhancing activity” value was “activity was confirmed”.

For the compound `CCC(C)C(CC(O)CC(=O)OC1C(C)OC(OC(=O)C23CCC(C)(C)CC2C2=CCC4C5(C)CCC(OC6OC(C(=O)O)C(O)C(OC7OCC(O)C(O)C7O)C6OC6OC(CO)C(O)C(O)C6O)C(C)(C=O)C5CCC4(C)C2(C)CC3O)C(OC2OC(C)C(OC3OCC(O)C(OC4OCC(O)(CO)C4O)C3O)C(OC3OC(CO)C(O)C(O)C3O)C2O)C1O)OC(=O)CC(O)CC(OC1OC(CO)C(O)C1O)C(C)CC` (stereo not shown) [QS18, QS-18], the “CMC” value in data set [2] is 68 ± 7 µM.

Regarding `CC(=O)OC1C(C)OC(OC2C(C)OC(OC(=O)[C@]34CCC(C)(C)CC3C3=CCC5[C@@]6(C)CC[C@H](OC7OC(C(=O)O)C(O)C(OC8OCC(O)C(O)C8O)C7OC7OC(CO)C(O)C(O)C7O)[C@@](C)(C=O)C6CC[C@@]5(C)[C@]3(C)C[C@H]4O)C(OC3OC(C)C(OC4OCC(O)C(OC5OCC(O)C(O)C5O)C4O)C(O)C3O)C2O)C(O)C1OC1OCC(O)C(O)C1O` (stereo partly shown) [SO1832], the “endosomal escape enhancing activity” value in data set [1] is given as “activity was confirmed”.

Regarding SO1904, the “endosomal escape enhancing activity” value in data set [1] is given as “activity was confirmed”.

For SO1700, in data set [1], the “endosomal escape enhancing activity” value is “activity was confirmed”.

cetuximab-saporin (antibody) came in with a cell killing on MDA-MB-468 (EGFR++), alone in the data set with EGFR (human) of 300 pM.

On to SO1861, for which the CMC value in data set [2] (native SO1861 in PBS) was found to be 185 µM. The IC50 was 700 nM in data set [3] (SK-BR-3 (EGFR+), SO1861 titrated on fixed 50 pM VHH-EGFR-dianthin); 200 nM in data set [3] (SK-BR-3 (HER2++/CD71+), SO1861 titrated on fixed 50 pM VHH-CD71-dianthin); 200 nM in data set [3] (SK-BR-3 (HER2++/CD71+), SO1861 titrated on fixed 50 pM VHH-HER2-dianthin); 200 nM in data set [4] (A2058 (CD71+), SO1861 titrated on fixed 50 pM VHHCD71-dianthin); 700 nM in data set [4] (A2058 (HER2+/-), SO1861 titrated on fixed 50 pM VHH-HER2-dianthin); 200 nM in data set [5] (A431 (CD71+), SO1861 titrated on fixed 50 pM VHHCD71-dianthin, read-out: cell killing IC50). For the same compound, the IC50 in data set [5] (A431 (EGFR++), SO1861 titrated on fixed 50 pM VHHEGFR-dianthin, read-out: cell killing IC50) amounted to 400 nM; in data set [5] (A431, SO1861 alone, read-out: SO1861 tolerated concentration IC50), 1000 nM; in data set [6] (MDA-MB-468 (EGFR++), SO1861 titrated on fixed 50 pM VHH-EGFR-dianthin) it was 300 nM; in data set [6] (MDA-MB-468 (EGFR++), titrated on fixed 1 pM or 5 pM bivalentVHH-EGFR-dianthin), 1000 nM; in data set [6] (MDA-MB-468 (HER2-/CD71+), SO1861 titrated on fixed 50 pM VHH-CD71-dianthin), 200 nM. Further, the “cell killing IC50” value was “no activity” in data set [4] (A2058 (EGFR-), SO1861 titrated on fixed 50 pM VHHEGFR-dianthin); “no activity” in data set [5] (A431 (HER2+/-), SO1861 titrated on fixed 50 pM VHH-HER2-dianthin); “no enhanced activity compared to SO1861 alone” in data set [6] (MDA-MB-468 (HER2-/CD71+), SO1861 titrated on fixed 50 pM VHH-HER2-dianthin). In addition, the “endosomal escape enhancing activity” value in data set [1] is listed as “activity was confirmed”.

Turning to QS-17 [QS17], the “CMC” value in data set [2] was found to be 70 ± 7 µM.

For `CC(=O)OC1C(C)OC(OC2C(C)OC(OC(=O)[C@]34CCC(C)(C)CC3C3=CCC5[C@@]6(C)CC[C@H](OC7OC(C(=O)O)C(O)C(OC8OCC(O)C(O)C8O)C7OC7OC(CO)C(O)C(O)C7O)[C@@](C)(/C=N/NC(=O)CCCCCN7C(=O)C=CC7=O)C6CC[C@@]5(C)[C@]3(C)C[C@H]4O)C(OC3OC(C)C(OC4OCC(O)C(OC5OC(CO)C(O)C(O)C5O)C4O)C(O)C3O)C2O)C(O)C1OC1OCC(O)C(O)C1O` (stereo partly shown) [SO1861-EMCH], the cell killing result in data set [4] (A2058 (EGFR-), titrated on fixed 5 pM bivalent VHH-EGFR-dianthin) is “not effective”; in data set [4] (A2058 (EGFR-), titrated on fixed 10 pM matuzumab-dianthin), “not effective”. Moreover, the IC50 stood at 1500 nM in data set [4] (A2058 (EGFR-/CD71+), titrated on fixed 10 pM CD71mab-saporin); 1500 nM in data set [5] (A431 (EGFR++), titrated on fixed 5 pM bivalent VHH-EGFR-dianthin, read-out: cell killing IC50); 1000 nM in data set [5] (A431 (EGFR++), titrated on fixed 10 pM cetuximab-saporin, read-out: cell killing IC50); 1500 nM in data set [5] (A431 (EGFR++), titrated on fixed 10 pM matuzumab-dianthin, read-out: cell killing IC50); 2000 nM in data set [5] (A431 (EGFR++/CD71+), titrated on fixed 10 pM CD71mab-saporin, read-out: cell killing IC50).

In the case of `CC(=O)OC1C(C)OC(OC2C(C)OC(OC(=O)[C@]34CCC(C)(C)CC3C3=CCC5[C@@]6(C)CC[C@H](OC7OC(C(=O)O)C(O)C(OC8OCC(O)C(O)C8O)C7OC7OC(CO)C(O)C(O)C7O)[C@@](C)(C=NNC(=O)CCCCCN7C(=O)CC(SCCO)C7=O)C6CC[C@@]5(C)[C@]3(C)C[C@H]4O)C(OC3OC(C)C(OC4OCC(O)C(OC5OC(CO)C(O)C(O)C5O)C4O)C(O)C3O)C2O)C(O)C1OC1OCC(O)C(O)C1O` (stereo partly shown) [SO1861-EMCH (blocked)], the “time to 50% release of saponin” value in data set [7] came out at 12 h.
